Reference: patent publication US5369112A, “Method of treating cataracts caused by active oxygen” (Mitsubishi Gas Chemical Company, Inc., priority 1991, dated 1994)
Where two headings read alike, the source gives them in different places.

What was measured:
male mice SPF-ICR [1] = assay: Acute toxicity test (1), intraperitoneal; details: mouse, in vivo
Description: To male mice SPF-ICR five weeks old (supplied by Japan Charles River Co.) were intraperitoneally administered PQQ·2Na, PQQ trimethyl ester, PQQ triallyl ester, OPQ, 1-methylpropyl OPQ, 2-methylthioethyl OPQ and benzyl OPQ at dosages of 40, 80, 160 and 200 mg per kg of body weight of mouce, respectively and they were bred for 14 days at 25° C. One group consisted of 8 mice. For administration, PQQ·2Na and OPQ and esters thereof were dissolved in physiological saline and PQQ trimethyl ester and PQQ triallyl ester were suspended in 1% Tween 80-containing physiological saline, respectively.

mice [2] = details: mouse, in vivo, ip
Description: One group consisted of 8 mice. For administration, PQQ·2Na and OPQ and esters thereof were dissolved in physiological saline and PQQ trimethyl ester and PQQ triallyl ester were suspended in 1% Tween 80-containing physiological saline, respectively.
PQQ·2Na, PQQ trimethyl ester, PQQ triallyl ester and OPQ and esters thereof were intraperitoneally administered to mice and they were bred in the same manner as in the above acute toxicity test. Urine of the mice was taken every day and glucose concentration was measured using clinical examination reagent (trademark: […] 2 manufactured by Miles.Sankyo Co.).

mice [3] = assay: Kidney Toxicity Determined by Blood Examination (2); assay type: in vivo; details: for Creatinine / Glucose / Urea nitrogen: mouse serum
Description: Dosages were 150, 400 and 1000 mg per kg of body weight of mouse.
(§1) After lapse of one day from the administration, the mice were fasted (with feeding only water) and then after 15 hours, blood was collected and serum was obtained therefrom. Glucose, urea nitrogen and creatinine in the serum were examined by clinical examination reagent (trademark: FUJI DRYCHEMSLIDE manufactured by Fuji Photo Film Co., Ltd.).

[4] = Superoxide scavenging activity (hypoxanthine-xanthine oxidase, DMPO spin trapping, ESR); assay type: biochemical; details: pH 7.3, read-out: O2^- scavenging activity IC50
Source text: Activity of PQQ esters to scavenge superoxide (O2^-) produced in the system of hypoxanthinexanthine oxidase was examined by spin trapping method [using 5,5-dimethyl-l-pyrroline-N-oxide (hereinafter referred to as "DMPO") as a spin trapping agent] where electron spin resonance (hereinafter referred to as "ESR") was used.
Hypoxanthine+2O2 →2O2^- +uric acid (xanthine oxidase)
The following reagents were successively put in a test tube and stirred after addition of the hypoxanthine 7 to initiate the reaction and the reaction mixture was transferred to a quartz cell used for measurement of ESR.
Superoxide scavenging activity of OPQ and esters thereof was examined in the same manner as in Example 1.

[5] = tested on: Hydrocortisone-Induced Cataract of Hen's Eggs; assay: Effect on hydrocortisone-induced cataract of hen's eggs; assay type: in vivo, white leghorn (hen's eggs); details: 1 μmole at 3, 10 and 20 h after hydrocortisone; lens at 48 h
Description: Fertilized eggs of white leghorn were incubated in an incubator at a temperature of 37° C. and 70% in humidity. The day on which the incubation was started was taken to be one day old. […] eggs of 15 day old were prepared and divided into 7 groups, each of which included 5 eggs (A-G). A small hole was bored through the eggshell above air chamber of the eggs of groups B-G and 0.25 μmole (as 0.2 ml solution) of hydrocortisone sodium succinate was administered into the air chamber through the hole and then, the hole was sealed with a cellophane tape. To The eggs of groups C-G was administered 1 μmole of following compounds after 3, 10 and 20 hours from administration of hydrocortisone sodium succinate. That is, 0.2 ml of a solution of PQQ·2Na in distilled water was administered to the eggs of group C, 0.2 ml of a suspension of PQQ trimethyl ester in 1% Tween 80 solution was administered to the eggs of group D, 0.2 ml of a suspension of triallyl ester in 1% Tween 80 solution was administered to the eggs of group E, 0.2 ml of a solution of OPQ in 10 mM NaCO3 solution was administered to the eggs of group F, and 0.2 ml of a solution of methyl OPQ in 10 mM NaCO3 solution was administered to the eggs of group G.
Crystal lens was taken out after 48 hours from administration of hydrocortisone sodium succinate and degree of cataract was judged by the criteria according to the Nishigori et al method (Nishigori et al, "Investigative Ophthalmology & Visual Science", Vol. 25, page 1051, 1984).
5 The whole nucleus was hazed in white.

[6] = not told; for Membrane permeation constant: bovine, 960 min
Description: Permeability of various compounds through capsule of crystal bovine lens was examined in accordance with the method mentioned in "Crystal Lens and Biochemical Mechanism thereof" (pages 436-440) edited by Shuzo Iwata (Medical Aoi Publisher). Each compound dissolved in 10 mM HEPES buffer (containing 1% DMSO in the case of PQQ triesters) was put in an apparatus for measurement of membrane permeation constant and left to stand for 16 hours at 35° C. and then amount of the compound which migrated was measured by ultraviolet absorption (243 nm for PQQ·2Na and 255 nm for PQQ esters) to obtain membrane permeation constant.

male mice SPF-ICR [7] = assay: Acute Toxicity Test (3), intraperitoneal; assay type: in vivo; details: for mice died: 8 mice per group, 14 days
Source text: One group consisted of 8 mice.

male mice SPF-ICR [8] = assay: Acute Toxicity Test (4), oral; assay type: in vivo; details: oral 1.0, 1.5 and 2.0 g/kg, 8 mice per group, 14 days
Description: To male mice SPF-ICR five weeks old (supplied by Japan Charles River Co.) was orally administered OPQ at dosages of 1.0, 1.5 and 2.0 g per kg of body weight of mouse, respectively and they were bred for 14 days at 25° C. One group consisted of 8 mice. No mice died.

mice [9] = assay: Kidney Toxicity Determined by Blood Examination (1); assay type: in vivo; details: for Creatinine / Glucose / Urea nitrogen: mouse serum
Description: as §1, with “18” for “15”

mice [10] = assay: Kidney Toxicity Determined by Blood Examination (3); assay type: in vivo; details: mouse serum
Description: as §1, with “Thereafter,” for “After lapse of one day from the administration,”, “18” for “15”

[11] = Hydroxy radical scavenging activity (H2O2-(Fe^2+-DTPA), DMPO spin trapping, ESR); assay type: biochemical; details: pH 7.3, read-out: .OH scavenging activity IC50
Source text: Activity of PQQ esters to scavenge hydroxy radical (·OH) produced in the system of H2 O2 --(Fe^2+ -DTPA) was examined by spin trapping method [using 5,5-dimethyl-1-pyrroline-N-oxide (hereinafter referred to as "DMPO") as a spin trapping agent] where electron spin resonance (hereinafter referred to as "ESR") was used. DTPA means diethylenetriamine-pentaacetic acid.
H2 O2 +Fe^2 -DTPA complex→·OH+OH^-
The following reagents were successively put in a test tube and stirred after addition of H2 O2 6 to initiate the reaction and the reaction mixture was transferred to a quartz cell used for measurement of ESR.
Hydroxy radical scavenging activity of OPQ and esters thereof was examined in the same manner as in Example 3.

[12] = Acute Toxicity Test (2), intraperitoneal; assay type: in vivo; details: mouse, in vivo, ip
Description: (§2) To male mice SPF-ICR five weeks old (supplied by Japan Charles River Co.) were intraperitoneally administered PQQ triallyl ester at dosages of 40, 80, 160, 200, 400 and 800 mg per kg of body weight of mouse, respectively and they were bred for 14 days at 25° C. One group consisted of 8 mice. For administration, PQQ triallyl ester was suspended in 1% Tween 80-containing physiological saline.

male mice SPF-ICR [13] = assay: Acute Toxicity Test (2), intraperitoneal; assay type: in vivo; details: 8 mice per group, 14 days
Description: as §2

COC(=O)c1cc(C(=O)OC)c2c(n1)C(=O)C(=O)c1cc(C(=O)OC)[nH]c1-2 [PQQ trimethyl ester]
mice died (male mice SPF-ICR [1]): no mice died
glucose detected in urine (mice [2]): no glucose was detected in urine
glucose in urine (mice [2]; 20 mg/kg): -
glucose in urine (mice [2]; 40 mg/kg): -
glucose in urine (mice [2]; 80 mg/kg): -
glucose in urine (mice [2]; 160 mg/kg): -
glucose in urine (mice [2]; 200 mg/kg): -
glucose in urine (mice [2]; 400 mg/kg): -
glucose in urine (mice [2]; 1000 mg/kg): -
Creatinine (mice [3]; 150 mg/kg): 0.85 ± 0.08 mg/dL
Glucose (mice [3]; 150 mg/kg): 154 ± 23 mg/dL
Urea nitrogen (mice [3]; 150 mg/kg): 23 ± 2 mg/dL
Creatinine (mice [3]; 400 mg/kg): 0.73 ± 0.05 mg/dL
Glucose (mice [3]; 400 mg/kg): 117 ± 21 mg/dL
Urea nitrogen (mice [3]; 400 mg/kg): 20 ± 2 mg/dL
Creatinine (mice [3]; 1000 mg/kg): 0.73 ± 0.05 mg/dL
Glucose (mice [3]; 1000 mg/kg): 125 ± 17 mg/dL
Urea nitrogen (mice [3]; 1000 mg/kg): 17 ± 4 mg/dL
kidney toxicity (mice [3]; mouse, in vivo, 1000 mg/kg): No kidney toxicity was recognized
IC50 ([4]; Example 1, Table 6): 0.0185 µM
Judgement 1 (No haze was seen in crystal lens), eggs [5]: 1/5
Judgement 3 (Clear ring of white haze was seen in crystal lens), eggs [5]: 1/5
Judgement 4 ~ 5 (white haze of pinhole size in nucleus ~ whole nucleus hazed in white), eggs [5]: 3/5
Membrane permeation constant [6]: 1.41 ± 0.48 10 ^-7 cm^2 · sec^-1
membrane permeation constant relative to that of PQQ.2Na [6]: about twice

O=C(O)c1cc(C(=O)O)c2c(n1)c1ncoc1c1cc(C(=O)O)[nH]c12 [OPQ, 2,8,10-tricarboxy-1-H-oxazo[5,4-h]-pyrrolo[2,3-f]quinoline]
mice died (male mice SPF-ICR [1]): no mice died
mice died (male mice SPF-ICR [7]; i.p. 0.1-0.4 g/kg): No mice died
mice died (male mice SPF-ICR [7]; i.p. 0.8 g/kg): two mice died
mice died (male mice SPF-ICR [7]; i.p. 1.0 g/kg): three mice died
mice died (male mice SPF-ICR [7]; i.p. 1.2 g/kg): six mice died
LD50 (male mice SPF-ICR [7]; mouse, in vivo, ip, 336 h): about 1.0 g/kg-mouse
mice died (male mice SPF-ICR [8]): No mice died
glucose in urine (mice [2]; 20 mg/kg): -
glucose in urine (mice [2]; 40 mg/kg): -
glucose in urine (mice [2]; 80 mg/kg): -
glucose in urine (mice [2]; 160 mg/kg): -
glucose in urine (mice [2]; 200 mg/kg): -
glucose in urine (mice [2]; 400 mg/kg): -
glucose in urine (mice [2]; 800 mg/kg): -
glucose in urine (mice [2]; 1000 mg/kg): -
glucose in urine (mice [2]; 1200 mg/kg): -
Creatinine (mice [9]; 40 mg/kg): 0.70 ± 0.10 mg/dL
Glucose (mice [9]; 40 mg/kg): 90 ± 18 mg/dL
Urea nitrogen (mice [9]; 40 mg/kg): 25 ± 3 mg/dL
Creatinine (mice [9]; 80 mg/kg): 0.80 ± 0.10 mg/dL
Glucose (mice [9]; 80 mg/kg): 86 ± 10 mg/dL
Urea nitrogen (mice [9]; 80 mg/kg): 23 ± 4 mg/dL
Creatinine (mice [9]; 160 mg/kg): 0.73 ± 0.09 mg/dL
Glucose (mice [9]; 160 mg/kg): 90 ± 23 mg/dL
Urea nitrogen (mice [9]; 160 mg/kg): 27 ± 6 mg/dL
Creatinine (mice [9]; 200 mg/kg): 0.81 ± 0.08 mg/dL
Glucose (mice [9]; 200 mg/kg): 85 ± 24 mg/dL
Urea nitrogen (mice [9]; 200 mg/kg): 28 ± 4 mg/dL
Creatinine (mice [10]; i.p. 150 mg/kg): 0.75 ± 0.05 mg/dL
Glucose (mice [10]; i.p. 150 mg/kg): 106 ± 21 mg/dL
Urea nitrogen (mice [10]; i.p. 150 mg/kg): 32 ± 3 mg/dL
Creatinine (mice [10]; i.p. 300 mg/kg): 0.78 ± 0.04 mg/dL
Glucose (mice [10]; i.p. 300 mg/kg): 80 ± 15 mg/dL
Urea nitrogen (mice [10]; i.p. 300 mg/kg): 29 ± 2 mg/dL
Creatinine (mice [10]; i.p. 400 mg/kg): 0.78 ± 0.04 mg/dL
Glucose (mice [10]; i.p. 400 mg/kg): 104 ± 18 mg/dL
Urea nitrogen (mice [10]; i.p. 400 mg/kg): 29 ± 3 mg/dL
Creatinine (mice [10]; i.p. 600 mg/kg): 0.78 ± 0.11 mg/dL
Glucose (mice [10]; i.p. 600 mg/kg): 74 ± 11 mg/dL
Urea nitrogen (mice [10]; i.p. 600 mg/kg): 32 ± 5 mg/dL
IC50 ([4]; Example 2, Table 7): 1.22 µM
IC50 ([11]; Example 4, Table 9): 198 µM
Judgement 2 (Slight opaque ring was seen in crystal lens), eggs [5]: 1/5
Judgement 3 (Clear ring of white haze was seen in crystal lens), eggs [5]: 1/5
Judgement 4 ~ 5 (white haze of pinhole size in nucleus ~ whole nucleus hazed in white), eggs [5]: 3/5

C=CCOC(=O)c1cc(C(=O)OCC=C)c2c(n1)C(=O)C(=O)c1cc(C(=O)OCC=C)[nH]c1-2 [PQQ triallyl ester]
mice died (male mice SPF-ICR [1]): no mice died
LD50 at 336 h [12]: ~500 mg/kg
mice died (male mice SPF-ICR [13]; i.p. 200 mg/kg or less): No mice died
mice died (male mice SPF-ICR [13]; i.p. 400 mg/kg): three mice died
mice died (male mice SPF-ICR [13]; i.p. 800 mg/kg): eight mice all died
glucose in urine (mice [2]; 20 mg/kg): -
glucose in urine (mice [2]; 40 mg/kg): -
glucose in urine (mice [2]; 80 mg/kg): -
glucose in urine (mice [2]; 160 mg/kg): -
glucose in urine (mice [2]; 200 mg/kg): -
glucose in urine (mice [2]; 400 mg/kg): -
glucose in urine (mice [2]; 1000 mg/kg): -
contents of glucose, urea nitrogen and creatinine in serum (mice [9]; mice, summary of Table 3): nearly the same as those in the case of administration of no compounds
Creatinine (mice [9]; 40 mg/kg): 0.3 ± 0.1 mg/dL
Glucose (mice [9]; 40 mg/kg): 42 ± 6 mg/dL
Urea nitrogen (mice [9]; 40 mg/kg): 11 ± 4 mg/dL
Creatinine (mice [9]; 90 mg/kg): 0.2 ± 0.1 mg/dL
Glucose (mice [9]; 90 mg/kg): 47 ± 15 mg/dL
Urea nitrogen (mice [9]; 90 mg/kg): 12 ± 3 mg/dL
Creatinine (mice [9]; 160 mg/kg): 0.1 ± 0.1 mg/dL
Glucose (mice [9]; 160 mg/kg): 59 ± 16 mg/dL
Urea nitrogen (mice [9]; 160 mg/kg): 10 ± 1 mg/dL
Creatinine (mice [9]; 200 mg/kg): 0.1 ± 0.1 mg/dL
Glucose (mice [9]; 200 mg/kg): 76 ± 6 mg/dL
Urea nitrogen (mice [9]; 200 mg/kg): 9 ± 1 mg/dL
kidney toxicity (mice [9]; mouse, in vivo): kidney toxicity was not seen
IC50 ([4]; Example 1, Table 6): 0.0124 µM
IC50 ([11]; Example 3, Table 8): 42 µM
Judgement 1 (No haze was seen in crystal lens), eggs [5]: 2/5
Judgement 2 (Slight opaque ring was seen in crystal lens), eggs [5]: 1/5
Judgement 3 (Clear ring of white haze was seen in crystal lens), eggs [5]: 1/5
Judgement 4 ~ 5 (white haze of pinhole size in nucleus ~ whole nucleus hazed in white), eggs [5]: 1/5
Membrane permeation constant [6]: 2.42 ± 0.60 10 ^-7 cm^2 · sec^-1
